Measurements published in ChEMBL document CHEMBL2046305, “Discovery of selective menaquinone biosynthesis inhibitors against Mycobacterium tuberculosis” (J Med Chem, 2012).
Values after ≈ are worked out from the molar mass of the structure shown.

Test system: Mycobacterium tuberculosis
Experiment: Antibacterial activity against Mycobacterium bovis BCG by microplate alamar blue assay
Assay type: functional
Settings: variant bovis BCG

With `CCCCCC[C@H](CN1CCC(COc2cccc(C(=O)c3ccc(Cl)cc3)c2)CC1)OC(N)=O` as the compound, how does the MIC read?
The MIC was 3 µg/mL (≈ 5.99 µM).

For `CCCCCC[C@H](CN1CCC(COc2cccc(/C(=N\OC)c3ccc(Cl)cc3)c2)CC1)OC(N)=O`, which MIC is on record?
Its MIC is 2.95 µg/mL (≈ 5.56 µM).
